PubChem BioAssay AID2060333 (Molecular Pharmacology Branch, DTP, NCI, 2025)

Test system: 845751-090-R-J2-PDC tumor spheroid viability
Test: Anticancer human tumor 845751-090-R-J2-PDC patient-derived head and neck squamous carcinoma cell line growth inhibition [IpAb]
Conditions: spheroids with HUVEC and MSC; for IC50: curve of first compound; for viability, T/C: stronger effect = lower value; active means viability on the fitted dose curve at most 10% of control; inactive means the rest
Outline: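 Spheroids of 60% malignant cells, 25% HUVEC and 15% MSC were exposed to targeted agents combined with ipatasertib or abemaciclib. Doses started at or near clinical Cmax (10 microM when unknown) and fell in half-log steps.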
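Further: spheroids exposed to compounds for 7 days before readout.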
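Wherever viability, T/C is given: CTG3D luminescence normalised so that 100% = DMSO vehicle control.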

CC(=O)c1c(C)c2cnc(Nc3ccc(N4CCNCC4)cn3)nc2n(C2CCCC2)c1=O + CC(C)NCC(C(=O)N1CCN(c2ncnc3c2C(C)CC3O)CC1)c1ccc(Cl)cc1
> 300 nM: IC50 (second compound 0.1 µM)
< 0.949 nM: IC50 (second compound 0.316 µM) | IC50 (second compound 1 µM) | IC50 (second compound 3.16 µM) | IC50 (second compound 10 µM)
inactive: viability, T/C (second compound 0.1 µM, first compound 0.000949 µM) 62.6% | viability, T/C (second compound 0.1 µM, first compound 0.003 µM) 64.7% | viability, T/C (second compound 0.1 µM, first compound 0.00949 µM) 51.6% | viability, T/C (second compound 0.1 µM, first compound 0.03 µM) 53.5% | viability, T/C (second compound 0.1 µM, first compound 0.0949 µM) 71.8% | viability, T/C (second compound 0.1 µM, first compound 0.3 µM) 68.5% | viability, T/C (second compound 0.316 µM, first compound 0.000949 µM) 39.1% | viability, T/C (second compound 0.316 µM, first compound 0.003 µM) 33.9% | viability, T/C (second compound 0.316 µM, first compound 0.00949 µM) 32.4% | viability, T/C (second compound 0.316 µM, first compound 0.03 µM) 28.6% | viability, T/C (second compound 0.316 µM, first compound 0.0949 µM) 28.4% | viability, T/C (second compound 0.316 µM, first compound 0.3 µM) 34.1% | viability, T/C (second compound 1 µM, first compound 0.000949 µM) 26.6% | viability, T/C (second compound 1 µM, first compound 0.003 µM) 29.3% | viability, T/C (second compound 1 µM, first compound 0.00949 µM) 24.1% | viability, T/C (second compound 1 µM, first compound 0.03 µM) 34.8% | viability, T/C (second compound 1 µM, first compound 0.0949 µM) 37.3% | viability, T/C (second compound 1 µM, first compound 0.3 µM) 22.9% | viability, T/C (second compound 3.16 µM, first compound 0.000949 µM) 29.4% | viability, T/C (second compound 3.16 µM, first compound 0.003 µM) 26.1% | viability, T/C (second compound 3.16 µM, first compound 0.00949 µM) 26.2% | viability, T/C (second compound 3.16 µM, first compound 0.03 µM) 26.6% | viability, T/C (second compound 3.16 µM, first compound 0.0949 µM) 18% | viability, T/C (second compound 3.16 µM, first compound 0.3 µM) 21.7% | viability, T/C (second compound 10 µM, first compound 0.000949 µM) 16.4% | viability, T/C (second compound 10 µM, first compound 0.003 µM) 15.8% | viability, T/C (second compound 10 µM, first compound 0.00949 µM) 13.7% | viability, T/C (second compound 10 µM, first compound 0.03 µM) 13.8% | viability, T/C (second compound 10 µM, first compound 0.0949 µM) 11.3% | viability, T/C (second compound 10 µM, first compound 0.3 µM) 11.5%
